Reference: US20230093594A1, “PANTETHENOYLCYSTEINE DERIVATIVES AND USES THEREOF” (Comet Therapeutics, Inc., priority 2019, published 2023)

How the values were obtained:
[1] = tested on: MMA Patient fibroblasts (TSI 3739); assay: Mitochondrial morphology imaging in MMA patient fibroblasts (TSI 3739); type: cell-based; details: image compared with fragmented mitochondria in vehicle control
[2] = tested on: MMA Patient fibroblasts (GM00371); assay: Mitochondrial morphology imaging in MMA patient fibroblasts (GM00371); type: cell-based; details: image compared with fragmented mitochondria in vehicle control
[3] = tested on: MMA Patient fibroblasts (GM01673); assay: Mitochondrial morphology imaging in MMA patient fibroblasts (GM01673); type: cell-based; details: image compared with fragmented mitochondria in vehicle control
[4] = tested on: CD14+ monocytes differentiated to M1 macrophages; assay: M1 differentiation assay (macrophage cytokine secretion, ELISA); type: cell-based, human; details: 10 uM
Procedure: Monocytes were isolated by positive isolation with CD14+ microbeads (Miltenyi, 130-050-201). Monocytes were 99% viable and were 96% purity as analyzed by FACS and CD14±(BD, 563561). 100,000 monocytes along with compounds at the dose of 10 and 50 μM were allowed to differentiate to macrophages with 10 ng/ml GMCSF (R&D,15-GM-050/CF) in RPMI complete media (Invitrogen, 22400089) with 15% FBS (Hyclone SV30087.03) and 1% Penicillin-Streptomycin (Gibco, 15140-122). On day 2 and 4 half the media was refreshed with fresh GM-CSF and compounds at 10 and 50 μM dose. On day 6 the macrophages were matured with GMCSF, IFN, (R&D 285-IF-100/CF) and LPS (Sigma, L6143) in the presence of 10 μM and 50 μM of compounds. After 24h, supernatant was collected for the measurement of TNFα (DKW, 1117202), IL6 (DKW, 1110602), IL10 (DKW, 1110003) by ELISA. Macrophages were detached gently on ice with EDTA (Invitrogen, 15575-038) and analyzed by FACS (BD LSR Fortessa, 853492). […]

SMILES	mitochondrial morphology (elongation and networking of mitochondria) [1]	mitochondrial morphology (elongation and networking of mitochondria) [2]	mitochondrial morphology (elongation and networking of mitochondria) [3]	% decrease in Macrophage IL-6 Secretion [4] [%]	% decrease in Macrophage TNFα Secretion [4] [%]
COC(=O)[C@H](CSC(=O)CCCO)NC(=O)CCNC(=O)[C@H](O)C(C)(C)CO [Compound 697, methyl (2R)-2-[3-[(2R)-2,4-dihydroxy-3,3-dimethylbutanamido]propanamido]-3-[(4-hydroxybutanoyl)sulfanyl]propanoate]	elongation and networking of mitochondria promoted	elongation and networking of mitochondria promoted	elongation and networking of mitochondria promoted	–	–
COC(=O)[C@H](CSC(=O)CCCOC(C)=O)NC(=O)CCNC(=O)[C@H](O)C(C)(C)CO [Compound 698, methyl (2R)-3-[[4-(acetyloxy)butanoyl]sulfanyl]-2-[3-[(2R)-2,4-dihydroxy-3,3-dimethylbutanamido]propanamido]propanoate]	elongation and networking of mitochondria promoted	–	elongation and networking of mitochondria promoted	–	–
COC(=O)[C@H](CSC(=O)CCCNC(C)=O)NC(=O)CCNC(=O)[C@H](O)C(C)(C)CO [Compound 216, methyl (2R)-2-[3-[(2R)-2,4-dihydroxy-3,3-dimethylbutanamido]propanamido]-3-[(4-acetamidobutanoyl)sulfanyl]propanoate]	elongation and networking of mitochondria promoted	–	elongation and networking of mitochondria promoted	–	–
COC(=O)[C@H](CSC(=O)CCCN)NC(=O)CCNC(=O)[C@H](O)C(C)(C)CO [Compound 72, methyl (2R)-3-[(4-aminobutanoyl)sulfanyl]-2-[3-[(2R)-2,4-dihydroxy-3,3-dimethylbutanamido]propanamido]propanoate]	–	–	elongation and networking of mitochondria promoted	–	–
CC(=O)NCCCC(=O)SC[C@H](NC(=O)CCNC(=O)[C@H](O)C(C)(C)CO)C(=O)O [Compound 215, (2R)-2-[3-[(2R)-2,4-dihydroxy-3,3-dimethylbutanamido]propanamido]-3-[(4-acetamidobutanoyl)sulfanyl]propanoic acid]	–	–	–	≥30	≥30
